In patent US20060084652A1, “Alkylidene-tetrahydronaphthalene derivatives, process for their production and their use as anti-inflammatory agents” (priority 2004, published 2006):

Key:
[1] = system: secretion of cytokine IL-8 in monocyte cell line THP-1; assay: Inhibition of LPS-triggered IL-8 secretion in THP-1 cells (ELISA); format: cell-based, human
Procedure: The concentration of the cytokines was determined in the supernatant by means of commercially available ELISA kits.

[2] = biological target: T1, glucocorticoid receptor (GR) (Homo sapiens, UniProt P04150); assay: Binding to the glucocorticoid receptor, cytosol preparations of Sf9 cells, [3H]-dexamethasone as reference; conditions: recombinant GR
T1 construct: made in house; host or cells: Sf9 cells infected with recombinant baculovirus (cytosol preparation)
T1 sequence (P04150 1-777): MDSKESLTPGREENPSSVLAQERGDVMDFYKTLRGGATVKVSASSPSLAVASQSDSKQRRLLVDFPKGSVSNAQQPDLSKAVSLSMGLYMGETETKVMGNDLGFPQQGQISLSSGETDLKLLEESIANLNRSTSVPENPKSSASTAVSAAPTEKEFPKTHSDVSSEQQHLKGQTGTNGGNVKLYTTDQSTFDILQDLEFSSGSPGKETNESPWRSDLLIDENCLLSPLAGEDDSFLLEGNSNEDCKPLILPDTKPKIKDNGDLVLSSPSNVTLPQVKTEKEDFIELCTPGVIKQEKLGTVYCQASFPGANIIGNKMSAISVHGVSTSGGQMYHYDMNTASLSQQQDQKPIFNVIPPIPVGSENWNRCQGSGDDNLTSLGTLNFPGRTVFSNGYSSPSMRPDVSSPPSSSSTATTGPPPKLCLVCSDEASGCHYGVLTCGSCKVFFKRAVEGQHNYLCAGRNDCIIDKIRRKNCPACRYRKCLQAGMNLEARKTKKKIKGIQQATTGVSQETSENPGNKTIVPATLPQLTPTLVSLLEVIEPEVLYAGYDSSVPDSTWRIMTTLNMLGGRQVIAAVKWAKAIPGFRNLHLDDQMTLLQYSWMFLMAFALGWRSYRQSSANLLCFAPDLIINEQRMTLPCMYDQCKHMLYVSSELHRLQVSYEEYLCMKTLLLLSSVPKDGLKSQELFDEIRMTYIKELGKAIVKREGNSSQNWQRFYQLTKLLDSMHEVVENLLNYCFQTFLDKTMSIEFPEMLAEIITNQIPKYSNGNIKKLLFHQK
Text: The binding of substances to the glucocorticoid receptor (GR) and other steroid-hormone receptors (mineral corticoid receptor (MR), progesterone receptor (PR) and androgen receptor (AR)) is examined with the aid of recombinantly produced receptors. Cytosol preparations of Sf9 cells, which had been infected with recombinant baculoviruses that code for the GR, are used for the binding studies. In comparison to the reference substance [^3H]-dexamethasone, the substances show a high affinity to the GR. IC50(GR)=20 nM and IC50(PR)>1 μM were measured for the compound from Example 1, and IC50(GR)=30 nM and IC50(PR)>1 μM were measured for the compound from Example 2.

Compound | efficiency relative to [3H]-dexamethasone as a standard ([1]; IL-8 inhibition, THP-1) [%] | IC50 ([1]; THP-1, supernatant ELISA, read-out: IC50(IL8)) [nM] | IC50 [2] [nM]
C/C=C1/C[C@@](O)(C(F)(F)F)[C@H](Nc2cccc3nc(C)ccc23)c2ccc(F)cc21 (relative stereo) [Example 1, (cis, Z)-4-Ethylidene-6-fluoro-1-[(2-methylquinolin-5-yl)amino]-2-(trifluoromethyl)-1,2,3,4-tetrahydronaphthalen-2-ol] | 90 | 6.4 | 20
(cis, Z)-5-{[4-Ethylidene-6-fluoro-2,5-dihydroxy-2-(trifluoromethyl)-1,2,3,4-tetrahydronaphthalen-1-yl]amino}-quinolin-2(1H)-one [Example 2] |  |  | 30
